Results taken from patent publication US20240140931A1, “TRICYCLIC COMPOUNDS AND USES THEREOF” (HUTCHMED LIMITED, priority 2021, published 2024).

How the values were obtained:
[1] = target: Human full-length SHP2 recombinant protein (Homo sapiens (Human), UniProt Q06124); assay: Assay of full-length SHP2 phosphatase activity; type: biochemical; settings: DiFMUP substrate, with activating peptide
Procedure, shortened: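 Full-length human SHP2 preincubated 30 min at RT with activating peptide and compound (1% DMSO final). DiFMUP substrate added, reaction 60 min at 25 °C in dark. Fluorescence at ex 355/em 460 nm; IC50 from 4-parameter fit against enzyme-free and vehicle controls.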

[2] = test system: pERK1/2 (Thr202/Tyr204) in Miapaca2 cells; assay: Assay of intracellular pERK1/2 (Thr202/Tyr204) phosphorylation; type: cell-based; settings: pERK1/2 (Thr202/Tyr204) HTRF
Procedure, shortened: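 Miapaca2 cells treated 2 h at 37 °C with compound (3-fold series; final DMSO 0.5%), then lysed 1 h. pERK1/2 (Thr202/Tyr204) detected by HTRF (665/615 nm ratio) after 2 h at 25 °C; normalized to cell-free lysis buffer and DMSO-treated cell controls; IC50 by four-parameter fit.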

[3] = test system: Miapaca2 3D spheroids; assay: Assay of cell proliferation on Miapaca2 3D spheroids; type: cell-based; settings: CellTiter-Glo 3D, 5 days treatment
Procedure, shortened: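 Miapaca2 spheroids (300 cells/well, formed by day 2) exposed 5 days at 37 °C to compound in 3-fold dilution series, 0.1% DMSO final. Viability by CellTiter-Glo 3D luminescence; survival % relative to day-2 and day-7 DMSO controls, IC50 from four-parameter logistic fit.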

[4] = Homo sapiens, MIA PaCa-2, 120 h

| SMILES | IC50 [1] | IC50 ([2]; Homo sapiens, MIA PaCa-2, 2 h) | IC50 [3, 4] | IC50 ([2]; 2 hours) | IC50 [3] |
| --- | --- | --- | --- | --- | --- |
| COCC#Cc1ccc2c(c1)[C@@H](N)C1(CCN(c3ncc(Sc4ccnc(N)c4Cl)c4nncn34)CC1)C2 [Compound 147] | 3 nM | 10 nM | 48 nM |  |  |
| CC#Cc1ccc2c(c1)[C@@H](N)C1(CCN(c3nc(N)c(Sc4ccnc(N)c4Cl)c(=O)n3C)CC1)C2 [Compound 289] | 2 nM | 4 nM | 2 nM |  |  |
| CC#Cc1ccc2c(c1)[C@@H](N)C1(CCN(c3ncc(Sc4ccnc(N)c4Cl)c(=O)n3C)CC1)C2 [Compound 288] | 2 nM | 4 nM | 2 nM |  |  |
| Cc1nc(N2CCC3(CC2)Cc2ccc(C#CC(N)=O)cc2[C@H]3N)cnc1Sc1ccnc(N)n1 [Compound 281] | 10 nM | 167 nM | 24 nM |  |  |
| COCC#Cc1cc(F)c2c(c1)[C@@H](N)C1(CCN(c3cc(=O)n(-c4cccc(Cl)c4Cl)c(C)n3)CC1)C2 [Compound 166] | 6 nM | 38 nM | 110 nM |  |  |
| CCNC(=O)C#Cc1ccc2c(c1)[C@@H](N)C1(CCN(c3cnc(Sc4cccnc4Cl)c(N)n3)CC1)C2 [Compound 238] | 1.3 nM | 4 nM | 1 nM |  |  |
| CNC(=O)C#Cc1ccc2c(c1)[C@@H](N)C1(CCN(c3ncc(Sc4ccnc(N)c4Cl)nc3C)CC1)C2 [Compound 232] | 2 nM | 8 nM | 0.9 nM |  |  |
| C#Cc1ccc2c(c1)[C@@H](N)C1(CCN(c3cc(=O)n(-c4ccc(C#N)c(OC)c4Cl)c(C)n3)CC1)C2 [Compound 183] | 2 nM |  | 68 nM | 50 nM |  |
| CNC(=O)C#Cc1ccc2c(c1)[C@@H](N)C1(CCN(c3nc(N)c(Sc4ccnc(N)c4Cl)nc3F)CC1)C2 [Compound 239, (S)-3-(1-amino-1′-(6-amino-5-((2-amino-3-chloropyridin-4-yl)thio)-3-fluoropyrazin-2-yl)-1,3-dihydrospiro[indene-2,4′-piperidin]-6-yl)-N-methylpropiolamide] | 3 nM | 15 nM | 2.1 nM |  |  |
| COCC#Cc1cc(F)c2c(c1)[C@@H](N)C1(CCN(c3nc(C)n(-c4cccc(Cl)c4Cl)c(=O)c3C)CC1)C2 [Compound 160] | 13 nM | 56 nM | 41 nM |  |  |
| COCC#Cc1cc(F)c2c(c1)[C@@H](N)C1(CCN(c3ncc(Sc4ccnc(C)n4)c4nccn34)CC1)C2 [Compound 175] | 14 nM | 122 nM | 100 nM |  |  |
| CCNC(=O)C#Cc1ccc2c(c1)[C@@H](N)C1(CCN(c3cnc(Sc4cc(N)nc(Cl)c4Cl)c(N)n3)CC1)C2 [Compound 255] | 3 nM | 8 nM | 3 nM |  |  |
| CCNC(=O)C#Cc1ccc2c(c1)[C@@H](N)C1(CCN(c3cnc(Sc4cc(N)ncc4Cl)c(N)n3)CC1)C2 [Compound 247] | 1 nM | 3 nM | 1 nM |  |  |
| C#Cc1ccc2c(c1)[C@@H](N)C1(CCN(c3cc(=O)n(-c4ccc(F)c(OC)c4Cl)c(C)n3)CC1)C2 (atropisomer, axis not shown) [Compound 161] | 1 nM |  |  | 13 nM | 8 nM |
| C#Cc1ccc2c(c1)[C@@H](N)C1(CCN(c3nc(N)c(Sc4ccnc(N)c4Cl)c(=O)n3C)CC1)C2 [Compound 282] | 1 nM | 3 nM | 2 nM |  |  |
| C#Cc1ccc2c(c1)[C@@H](N)C1(CCN(c3ncc(Sc4ccnc(N)c4Cl)c(N)n3)CC1)C2 [Compound 205] | 12 nM |  |  | 29 nM | 68 nM |
| COCC#Cc1ccc2c(c1)[C@@H](N)C1(CCN(c3cc(=O)n(-c4ccc(F)c(OC)c4Cl)c(C)n3)CC1)C2 (atropisomer, axis not shown) [Compound 163] | 1 nM |  | 20 nM | 14 nM |  |
| CCCNC(=O)C#Cc1ccc2c(c1)[C@@H](N)C1(CCN(c3nc(N)c(Sc4ccnc(N)c4Cl)nc3C)CC1)C2 [Compound 237] | 3.9 nM | 4 nM | 2.4 nM |  |  |
| CNC(=O)C#Cc1ccc2c(c1)[C@@H](N)C1(CCN(c3ncc(Sc4ccnc(N)n4)nc3C)CC1)C2 [Compound 233] | 1.1 nM | 14 nM | 3.2 nM |  |  |
| COc1nccc(Sc2nc(C)c(N3CCC4(CC3)Cc3ccc(C#CC(=O)N(C)C)cc3[C@H]4N)nc2N)c1Cl [Compound 204] | 6 nM | 54 nM | 121 nM |  |  |
| CC#Cc1ccc2c(c1)[C@@H](N)C1(CCN(c3cc(=O)n(-c4ccc(F)c(OC)c4Cl)c(C)n3)CC1)C2 (atropisomer, axis not shown) [Compound 207] | 2 nM |  | 35 nM | 9 nM |  |

Second part, the compound after the results:

| IC50 [1] | IC50 ([2]; Homo sapiens, MIA PaCa-2, 2 h) | IC50 [3, 4] | IC50 ([2]; 2 hours) | IC50 [3] | SMILES |
| --- | --- | --- | --- | --- | --- |
| 0.7 nM | 19 nM | 15 nM |  |  | CCNC(=O)C#Cc1ccc2c(c1)[C@@H](N)C1(CCN(c3cnc(N4CCCc5ncccc54)cn3)CC1)C2 [Compound 243, (S)-3-(1-amino-1′-(5-(3,4-dihydro-1,5-naphthyridin-1(2H)-yl)pyrazin-2-yl)-1,3-dihydrospiro[indene-2,4′-piperidin]-6-yl)-N-ethylpropiolamide] |
| < 0.5 nM | 1 nM | 0.3 nM |  |  | CCNC(=O)C#Cc1ccc2c(c1)[C@@H](N)C1(CCN(c3cnc(Sc4ccnc(N)c4F)cn3)CC1)C2 [Compound 257] |
| 1 nM | 7 nM | 15 nM |  |  | CNC(=O)C#Cc1ccc2c(c1)[C@@H](N)C1(CCN(c3nc(N)c(Sc4ccnc(C)c4Cl)nc3C)CC1)C2 [Compound 189] |
| 1 nM | 11 nM | 30 nM |  |  | Cc1c(N2CCC3(CC2)Cc2ccc(C#CC(=O)N(C)C)cc2[C@H]3N)nc(C)n(-c2cccc(Cl)c2Cl)c1=O [Compound 195] |
| 1 nM | 18 nM | 9 nM |  |  | C#Cc1ccc2c(c1)[C@@H](N)C1(CCN(c3ncc(Sc4ccnc(N)c4Cl)c(=O)n3CC)CC1)C2 [Compound 294] |
| 1 nM | 45 nM | 28 nM |  |  | CNC(=O)C#Cc1ccc2c(c1)[C@@H](N)C1(CCN(c3nc(N)c(Sc4ccnc(N)n4)nc3C)CC1)C2 [Compound 216] |
| 0.4 nM | 0.9 nM | 0.4 nM |  |  | CNC(=O)C#Cc1ccc2c(c1)[C@@H](N)C1(CCN(c3cnc(Sc4ccnc(N)c4F)cn3)CC1)C2 [Compound 265] |
| 1 nM | 737 nM | 243 nM |  |  | Cc1nc(Sc2ccnc(N)c2Cl)c(N)nc1N1CCC2(CC1)Cc1ccc(C#CC(=O)O)cc1[C@H]2N [Compound 283] |
| 1 nM | 24 nM | 29 nM |  |  | CNC(=O)C#Cc1ccc2c(c1)[C@@H](N)C1(CCN(c3cnc(N4CCCc5ncccc54)cn3)CC1)C2 [Compound 251] |
| 1 nM | 10 nM | 2 nM |  |  | CNC(=O)C#Cc1ccc2c(c1)[C@@H](N)C1(CCN(c3cnc(Sc4cc(N)nc(Cl)c4Cl)c(N)n3)CC1)C2 [Compound 253] |
| 1 nM | 5 nM | 0.9 nM |  |  | CCNC(=O)C#Cc1ccc2c(c1)[C@@H](N)C1(CCN(c3cnc(Sc4ccnc(N)c4Cl)cn3)CC1)O2 [Compound 293] |
| 1 nM | 8 nM | 9 nM |  |  | CNC(=O)C#Cc1ccc2c(c1)[C@@H](N)C1(CCN(c3ncc(Sc4ccnc(N)c4Cl)c4nccn34)CC1)C2 [Compound 172] |
| 1 nM |  | 18 nM | 6 nM |  | CNC(=O)C#Cc1ccc2c(c1)[C@@H](N)C1(CCN(c3cc(=O)n(-c4ccc(F)c(OC)c4Cl)c(C)n3)CC1)C2 (atropisomer, axis not shown) [Compound 201] |
| 0.9 nM | 6 nM | 1 nM |  |  | CNC(=O)C#Cc1ccc2c(c1)[C@@H](N)C1(CCN(c3cnc(Sc4ccnc(N)c4Cl)cn3)CC1)O2 [Compound 292] |
| 0.6 nM | 2 nM | 0.4 nM |  |  | CNC(=O)C#Cc1ccc2c(c1)[C@@H](N)C1(CCN(c3cnc(Sc4ccnc(N)c4F)c(N)n3)CC1)C2 [Compound 264] |
| < 0.5 nM | 2 nM | 0.4 nM |  |  | CNC(=O)C#Cc1ccc2c(c1)[C@@H](N)C1(CCN(c3cnc(Sc4cccnc4Cl)c(N)n3)CC1)C2 [Compound 248] |
| 1 nM | 4 nM | 0.3 nM |  |  | CCNC(=O)C#Cc1ccc2c(c1)[C@@H](N)C1(CCN(c3ncc(Sc4ccnc(N)c4Cl)nc3C)CC1)C2 [Compound 290] |
| 1 nM | 3 nM | 3 nM |  |  | CNC(=O)C#Cc1ccc2c(c1)[C@@H](N)C1(CCN(c3nc(N)c(Sc4ccnc(N)c4Cl)nc3C)CC1)C2 [Compound 187] |
| 0.4 nM | 183 nM | 42 nM |  |  | Nc1nccc(Sc2cnc(N3CCC4(CC3)Cc3ccc(C#CC(=O)O)cc3[C@H]4N)cn2)c1Cl [Compound 279, (S)-3-(1-amino-1′-(5-((2-amino-3-chloropyridin-4-yl)thio)pyrazin-2-yl)-1,3-dihydrospiro[indene-2,4′-piperidin]-6-yl)propiolic acid] |
| 0.3 nM | 1 nM | 0.3 nM |  |  | COCCNC(=O)C#Cc1ccc2c(c1)[C@@H](N)C1(CCN(c3cnc(Sc4ccnc(N)c4F)cn3)CC1)C2 [Compound 298] |
